Data reported in patent US20260049077A1, “Neurotrophic Receptor Tyrosine Kinase (NTRK) Inhibitors and Methods Using Same” (Baylor College of Medicine, priority 2022, published 2026).

What was measured:
[1] = tested on: endometriotic lesions; assay: Endometriosis mouse model, lesion efficacy; assay type: in vivo
Protocol: FIGS. 17A-17F depict the robust efficacy of the inhibitory compounds of the present disclosure as NTRK2 inhibitors for inhibition of endometriotic lesion growth in mice utilizing CDD-3132 as an example. FIG. 17A provides a schematic overview of the experiment performed. FIGS. 17B-17C provide photographs showing excised lesions with administration of a control (FIG. 17B) or CDD-3132 (10 mg/kg/day) (FIG. 17C).
(§1) In one aspect, the present disclosure provides exemplary data relating to the administration of NTRK2 inhibitors in a mouse model of endometriosis (FIG. 14). In certain embodiments, the recipient mouse is administered the NTRK2 inhibitor and/or controls on day 14 after intraperitoneal injection of endometrium of the donor mouse. In certain embodiments, the recipient mouse is sacrificed and quantitatively assessed on day 28.

[2] = Metabolic stability in mouse liver microsomes (MLM)
[3] = Metabolic stability in human liver microsomes (HLM)
[4] = biological target: NTRK2 (Homo sapiens (Human), UniProt Q16620); assay: NTRK2 inhibition (IC50); assay type: biochemical
[5] = biological target: NTRK3 (Homo sapiens (Human), UniProt Q16288); assay: NTRK3 inhibition (IC50); conditions: read-out: NTRK3 IC50
[6] = biological target: NTRK1 (Homo sapiens (Human), UniProt P04629); assay: NTRK1 inhibition (IC50); conditions: read-out: NTRK1 IC50
[7] = Brain uptake in mice 24 hours post-administration; assay type: in vivo, mouse; conditions: mouse, brain, 24 h, read-out: Brain Concentration at 24 h (ng/mg)
[8] = Endometriosis mouse model, liver and kidney toxicity (organ weight, ALT, AST); assay type: in vivo; design: ALT (Mean ± SD) / AST (Mean ± SD): unit not given here; conditions: for effect on liver and/or kidney weight and/or serum elevation of ALT and AST: 10 mg/kg, mice with endometriotic lesions
Protocol: as §1

[9] = i.p. dose of 10 mg/kg/day for 14 days
[10] = 10 mg/kg, compared to vehicle control

Chain of NTRK1 (P04629 33-796): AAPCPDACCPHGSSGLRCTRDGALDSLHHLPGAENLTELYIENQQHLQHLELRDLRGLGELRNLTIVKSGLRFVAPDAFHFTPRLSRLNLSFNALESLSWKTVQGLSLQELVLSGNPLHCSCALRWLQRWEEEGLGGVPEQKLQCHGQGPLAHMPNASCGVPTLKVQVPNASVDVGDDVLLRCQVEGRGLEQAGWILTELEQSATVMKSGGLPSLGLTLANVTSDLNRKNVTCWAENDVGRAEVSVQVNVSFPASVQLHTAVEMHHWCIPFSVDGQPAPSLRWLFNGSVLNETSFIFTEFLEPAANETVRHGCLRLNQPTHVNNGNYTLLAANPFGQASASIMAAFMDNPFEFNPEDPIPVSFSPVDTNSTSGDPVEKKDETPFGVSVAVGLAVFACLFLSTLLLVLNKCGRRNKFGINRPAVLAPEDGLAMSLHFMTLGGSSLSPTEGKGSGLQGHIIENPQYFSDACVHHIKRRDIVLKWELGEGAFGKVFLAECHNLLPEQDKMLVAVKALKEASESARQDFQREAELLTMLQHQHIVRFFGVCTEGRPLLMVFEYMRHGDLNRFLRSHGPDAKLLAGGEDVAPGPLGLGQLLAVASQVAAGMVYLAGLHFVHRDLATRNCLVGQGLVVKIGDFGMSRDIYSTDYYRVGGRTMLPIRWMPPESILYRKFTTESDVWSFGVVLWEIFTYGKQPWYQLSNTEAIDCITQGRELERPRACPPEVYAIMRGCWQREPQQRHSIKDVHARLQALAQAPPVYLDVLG
Chain of NTRK3 (Q16288 32-839): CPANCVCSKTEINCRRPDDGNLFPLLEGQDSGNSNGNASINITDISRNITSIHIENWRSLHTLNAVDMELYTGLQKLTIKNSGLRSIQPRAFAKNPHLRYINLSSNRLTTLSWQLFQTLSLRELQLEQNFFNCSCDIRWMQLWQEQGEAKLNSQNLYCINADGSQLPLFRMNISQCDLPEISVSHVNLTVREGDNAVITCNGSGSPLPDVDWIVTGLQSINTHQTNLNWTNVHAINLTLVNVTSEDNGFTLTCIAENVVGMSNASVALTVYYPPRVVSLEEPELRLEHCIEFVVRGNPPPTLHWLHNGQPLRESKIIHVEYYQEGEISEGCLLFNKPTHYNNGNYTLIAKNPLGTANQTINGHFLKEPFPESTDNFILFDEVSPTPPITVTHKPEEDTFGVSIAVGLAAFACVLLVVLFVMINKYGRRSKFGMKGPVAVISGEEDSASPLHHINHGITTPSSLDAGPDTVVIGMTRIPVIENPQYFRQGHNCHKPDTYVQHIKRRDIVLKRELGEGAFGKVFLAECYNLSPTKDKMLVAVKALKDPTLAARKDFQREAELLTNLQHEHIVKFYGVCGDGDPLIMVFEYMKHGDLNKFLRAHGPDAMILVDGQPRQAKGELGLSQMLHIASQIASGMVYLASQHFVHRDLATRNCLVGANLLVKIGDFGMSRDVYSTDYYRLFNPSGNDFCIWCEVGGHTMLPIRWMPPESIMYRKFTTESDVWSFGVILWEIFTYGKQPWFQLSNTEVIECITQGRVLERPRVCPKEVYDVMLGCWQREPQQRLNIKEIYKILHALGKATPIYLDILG
Chain of NTRK2 (Q16620 32-822): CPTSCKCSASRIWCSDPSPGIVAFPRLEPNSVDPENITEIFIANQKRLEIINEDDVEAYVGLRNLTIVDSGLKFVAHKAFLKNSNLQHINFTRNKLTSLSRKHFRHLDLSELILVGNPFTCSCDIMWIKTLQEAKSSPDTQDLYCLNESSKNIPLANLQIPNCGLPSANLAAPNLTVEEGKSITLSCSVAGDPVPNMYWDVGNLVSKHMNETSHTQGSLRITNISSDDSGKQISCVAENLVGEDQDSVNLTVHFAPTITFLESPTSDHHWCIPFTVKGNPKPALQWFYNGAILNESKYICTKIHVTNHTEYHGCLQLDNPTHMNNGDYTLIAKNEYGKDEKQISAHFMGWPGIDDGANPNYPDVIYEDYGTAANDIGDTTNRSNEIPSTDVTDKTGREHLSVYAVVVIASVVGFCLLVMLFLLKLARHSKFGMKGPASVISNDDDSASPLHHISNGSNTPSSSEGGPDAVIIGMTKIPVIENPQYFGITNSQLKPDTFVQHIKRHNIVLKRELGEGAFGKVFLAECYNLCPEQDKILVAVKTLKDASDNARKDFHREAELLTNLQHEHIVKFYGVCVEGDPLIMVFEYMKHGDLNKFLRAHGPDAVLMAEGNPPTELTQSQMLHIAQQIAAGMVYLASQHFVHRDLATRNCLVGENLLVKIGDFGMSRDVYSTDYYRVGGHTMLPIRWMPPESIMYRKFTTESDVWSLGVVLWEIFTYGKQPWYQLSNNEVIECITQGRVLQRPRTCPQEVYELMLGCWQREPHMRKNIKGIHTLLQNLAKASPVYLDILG

SMILES: O=C(Nc1ccccc1C(=O)NC1CCCCNC1=O)c1cc2ccccc2s1 (stereo not shown) [ANA-12, reference compound]
- endometriotic lesion regression ([1]; mice): endometriotic lesion regression

SMILES: Cc1nnc2n1-c1ccc(Cl)cc1C(c1ccccc1)=NC2 [Alprazolam]
- half-life [2]: 5.83 h
- half-life [3]: 12.2 h

SMILES: O=C(Nc1cccc(C(F)(F)F)c1)N(Cc1ccn2nccc2c1)C1CCC1 [CDD-2273, 1-cyclobutyl-1-(pyrazolo[1,5-a]pyridin-5-ylmethyl)-3-(3-(trifluoromethyl)phenyl)urea]
- IC50 [4]: 1320 nM
- half-life [2]: 0.137 h
- half-life [3]: 0.258 h

SMILES: O=C(Nc1ccccc1C(F)(F)F)N(Cc1ccn2nccc2c1)C1CCC1 [CDD-2274, 1-cyclobutyl-1-(pyrazolo[1,5-a]pyridin-5-ylmethyl)-3-(2-(trifluoromethyl)phenyl)urea]
- IC50 [5]: 5.3 nM
- IC50 [4]: 4.5 nM
- half-life [2]: 0.0833 h
- half-life [3]: 0.192 h
- IC50 [6]: 12.4 nM

SMILES: O=C(Nc1ccc(OC(F)(F)F)cc1)N(Cc1ccn2nccc2c1)C1CC1 [CDD-2275, 1-cyclopropyl-1-(pyrazolo[1,5-a]pyridin-5-ylmethyl)-3-(4-(trifluoromethoxy)phenyl)urea]
- IC50 [4]: 46 nM
- half-life [2]: 0.933 h
- half-life [3]: 1.5 h

SMILES: O=C(Nc1ccc(OC(F)(F)F)cc1)N(Cc1ccn2nccc2c1)C1CCCC1 [CDD-2276, 1-cyclopentyl-1-(pyrazolo[1,5-a]pyridin-5-ylmethyl)-3-(4-(trifluoromethoxy)phenyl)urea]
- IC50 [4]: 19 nM
- half-life [2]: 0.583 h
- half-life [3]: 0.233 h

SMILES: CC(C)N(Cc1ccn2ncc(F)c2c1)C(=O)Nc1ccc(OC(F)(F)F)cc1 [CDD-2734, 1-((3-fluoropyrazolo[1,5-a]pyridin-5-yl)methyl)-1-isopropyl-3-(4-(trifluoromethoxy)phenyl)urea]
- IC50 [4]: 5.3 nM
- half-life [2]: 0.35 h
- half-life [3]: 0.967 h
- IC50 [6]: 36 nM

SMILES: NC(=O)c1cnn2ccc(CN(C(=O)Nc3ccc(OC(F)(F)F)cc3)C3CC3)cc12 [CDD-2738, 5-((1-cyclopropyl-3-(4-(trifluoromethoxy)phenyl)ureido)methyl)pyrazolo[1,5-a]pyridine-3-carboxamide]
- IC50 [5]: 1.51 nM
- IC50 [4]: 0.52 nM
- half-life [2]: 3.73 h
- concentration at 24 h [7]: 2300 ng/g
- half-life [3]: 6.35 h
- IC50 [6]: 7.5 nM

SMILES: CC(C)N(Cc1ccn2ncc(C#N)c2c1)C(=O)Nc1ccc(OC(F)(F)F)cc1 [CDD-2741, 1-((3-cyanopyrazolo[1,5-a]pyridin-5-yl)methyl)-1-isopropyl-3-(4-(trifluoromethoxy)phenyl)urea]
- IC50 [5]: 4.4 nM
- IC50 [4]: 5.8 nM
- half-life [2]: 0.683 h
- half-life [3]: 2.13 h
- IC50 [6]: 11.7 nM

SMILES: CC(C)N(Cc1ccn2ncc(C(=N)NO)c2c1)C(=O)Nc1ccc(OC(F)(F)F)cc1 [CDD-2744, N-hydroxy-5-((1-isopropyl-3-(4-(trifluoromethoxy)phenyl)ureido)methyl)pyrazolo[1,5-a]pyridine-3-carboximidamide]
- IC50 [5]: 2.9 nM
- IC50 [4]: 1.7 nM
- half-life [2]: 2.02 h
- half-life [3]: 6.47 h
- IC50 [6]: 18.1 nM

SMILES: CN(Cc1ccn2ncc(C(N)=O)c2c1)C(=S)Nc1ccc(OC(F)(F)F)cc1 [CDD-3118, 5-((1-methyl-3-(4-(trifluoromethoxy)phenyl)thioureido)methyl)pyrazolo[1,5-a]pyridine-3-carboxamide]
- IC50 [5]: 21.5 nM
- IC50 [4]: 19 nM
- half-life [2]: 11.5 h
- half-life [3]: 6.37 h
- IC50 [6]: 151 nM

SMILES: NC(=O)c1cnn2ccc(CNC(=S)Nc3ccc(OC(F)(F)F)cc3)cc12 [CDD-3131, 5-((3-(4-(trifluoromethoxy)phenyl)thioureido)methyl)pyrazolo[1,5-a]pyridine-3-carboxamide]
- IC50 [5]: 153 nM
- IC50 [4]: 132 nM
- half-life [2]: 5.85 h
- half-life [3]: 3.95 h
- IC50 [6]: 749 nM

SMILES: CN(Cc1ccn2ncc(C(N)=O)c2c1)C(=O)COc1ccc(OC(F)(F)F)cc1 [CDD-3132, 5-((N-methyl-2-(4-(trifluoromethoxy)phenoxy)acetamido)methyl)pyrazolo[1,5-a]pyridine-3-carboxamide]
- IC50 [5]: 1370 nM
- IC50 [4]: 517 nM
- half-life [2]: 11.8 h
- effect on liver and/or kidney weight and/or serum elevation of ALT and AST [8]: little to no effect
- ALT (Mean ± SD) [8, 9]: 20.5 ± 12.6
- AST (Mean ± SD) [8, 9]: 33.5 ± 20.6
- impact on liver and kidney weights ([8]; mice treated for 14 days): no significant impact
- number, volume and mass of lesions [1, 10]: reduction of lesions, volume of lesions, and mass of lesions
- size of endometriotic lesions [1, 10]: decreased size of endometriotic lesions
- endometriotic lesion growth ([1]; 10 mg/kg, excised lesions): inhibiting endometriotic lesion growth
- proliferation, vascularization, macrophage infiltration, inflammation within endometriotic lesions ([1]; 10 mg/kg, H&E staining, confocal microscopy): reduction of proliferation, vascularization, macrophage infiltration, and/or inflammation
- half-life [3]: 11.5 h
- IC50 [6]: 4560 nM

SMILES: CC(C)N(Cc1ccn2ncc(C(N)=O)c2c1)C(=O)COc1ccc(OC(F)(F)F)cc1 [CDD-3133, 5-((N-isopropyl-2-(4-(trifluoromethoxy)phenoxy)acetamido)methyl)pyrazolo[1,5-a]pyridine-3-carboxamide]
- IC50 [5]: 10.1 nM
- IC50 [4]: 4.3 nM
- half-life [2]: 3.08 h
- half-life [3]: 10 h
- IC50 [6]: 16.6 nM

SMILES: CC(C)N(Cc1ccn2ncc(C(N)=O)c2c1)C(=O)COc1ccc(C(C)(C)C)cc1 [CDD-3184, 5-((2-(4-(tert-butyl)phenoxy)-N-isopropylacetamido)methyl)pyrazolo[1,5-a]pyridine-3-carboxamide]
- IC50 [5]: 15.3 nM
- IC50 [4]: 6.7 nM
- half-life [2]: 0.102 h
- half-life [3]: 1.78 h
- IC50 [6]: 61 nM

SMILES: CC(C)N(Cc1ccn2ncc(C(N)=O)c2c1)C(=O)CNc1ccc(OC(F)(F)F)cc1 [CDD-3254, 5-((N-isopropyl-2-((4-(trifluoromethoxy)phenyl)amino)acetamido)methyl)pyrazolo[1,5-a]pyridine-3-carboxamide]
- IC50 [5]: 142 nM
- IC50 [4]: 59 nM
- half-life [2]: 2.38 h
- half-life [3]: 3.22 h
- IC50 [6]: 277 nM

SMILES: C=C(C)c1ccc(OCC(=O)N(Cc2ccn3ncc(C(N)=O)c3c2)C(C)C)cc1 [CDD-3255, 5-((N-isopropyl-2-(4-(prop-1-en-2-yl)phenoxy)acetamido)methyl)pyrazolo[1,5-a]pyridine-3-carboxamide]
- IC50 [5]: 54 nM
- IC50 [4]: 31.5 nM
- half-life [2]: 0.317 h
- half-life [3]: 0.75 h
- IC50 [6]: 357 nM

SMILES: CC(=O)c1ccc(OCC(=O)N(Cc2ccn3ncc(C(N)=O)c3c2)C(C)C)cc1 [CDD-3256, 5-((2-(4-acetylphenoxy)-N-isopropylacetamido)methyl)pyrazolo[1,5-a]pyridine-3-carboxamide]
- IC50 [5]: 312 nM
- IC50 [4]: 223 nM
- half-life [2]: > 3.33 h
- half-life [3]: > 3.33 h
- IC50 [6]: 1870 nM

SMILES: CC(=O)c1ccc(OCC(=O)N(C)Cc2ccn3ncc(C(N)=O)c3c2)cc1 [CDD-3257, 5-((2-(4-acetylphenoxy)-N-methylacetamido)methyl)pyrazolo[1,5-a]pyridine-3-carboxamide]
- IC50 [5]: 10900 nM
- IC50 [4]: 10600 nM
- half-life [2]: > 3.33 h
- half-life [3]: > 3.33 h
- IC50 [6]: 58200 nM

SMILES: CN(Cc1ccn2ncc(C(N)=O)c2c1)C(=O)CNc1ccc(OC(F)(F)F)cc1 [CDD-3258, 5-((N-methyl-2-((4-(trifluoromethoxy)phenyl)amino)acetamido)methyl)pyrazolo[1,5-a]pyridine-3-carboxamide]
- IC50 [5]: 2320 nM
- IC50 [4]: 963 nM
- half-life [2]: 5.63 h
- half-life [3]: 4.5 h
- IC50 [6]: 11000 nM

SMILES: CN(Cc1ccn2ncc(C(N)=O)c2c1)S(=O)(=O)Nc1ccc(OC(F)(F)F)cc1 [CDD-3308, 5-((methyl(N-(4-(trifluoromethoxy)phenyl)sulfamoyl)amino)methyl)pyrazolo[1,5-a]pyridine-3-carboxamide]
- IC50 [5]: 4320 nM
- IC50 [4]: 4440 nM
- IC50 [6]: 28400 nM

SMILES: CC(C)(CO)n1cc(C(=O)c2cncc(NC(=O)Cc3ccc(Cl)cn3)c2)c2cnc(N)nc21 [PF-0672, reference compound]
- effect on liver and/or kidney weight and/or serum elevation of ALT and AST [8]: little to no effect

SMILES: C[C@H]1CNC(=O)c2cnn3ccc(nc23)N[C@H](C)c2cc(F)ccc2O1 [Reprotrectinib, (3R,11S)-6-fluoro-3,11-dimethyl-10-oxa-2,13,17,18,21-pentazatetracyclo[13.5.2.04,9.018,22]docosa-1(21),4(9),5,7,15(22).16,19-heptaen-14-one, reference compound]
- MLM t1/2 [2]: 2.78 h
- HLM t1/2 [3]: 4.23 h

SMILES: C[C@@H]1CCc2ncc(F)cc2[C@H]2CCCN2c2ccn3ncc(c3n2)C(=O)N1 [Selitrectinib, (6R,15R)-9-fluoro-15-methyl-2,11,16,20,21,24-hexazapentacyclo[16.5.2.02,6.07,12.021,25]pentacosa-1(24),7(12),8,10,18(25),19,22-heptaen-17-one, reference compound]
- half-life [2]: 0.533 h
- half-life [3]: 4.07 h
